From patent publication US20040071967A1, “Microcapsule containing phase-change material and nucleating agent” (priority 2000, published 2004)
Where two headings read alike, the source gives them in different places. Blank lines part the entries; values can stand above or below the substance they belong to.

Assays:
Type in all cases: physicochemical
[1] = Critical aggregation concentration (solubility limit or critical micelle concentration)
Method: (§1) The critical aggregation concentrations (solubility limit or critical micelle concentration) were determined by intersection of the linear portion of a surface tension/In concentration curve with the limiting surface tension as is described in many textbooks. The limiting surface tensions at 0.1 and 20 bubbles/second (b/s) represent the lowest surface tensions in water which can be achieved at the given surface creation rate for a given surfactant regardless of the amount of surfactant used. These values give information about the relative ability to a surfactant to reduce surface defects under near-equilibrium condition (0.1 b/s) through very dynamic conditions (20 b/s). Lower surface tensions would allow the elimination of defects upon application of a formulation onto lower energy surfaces.

[2] = Dynamic surface tension of aqueous solutions, maximum bubble pressure method; settings: for γ (0.1% solution) 1 b/s / γ (0.1% solution) 6 b/s / limiting γ 0.1 b/s / limiting γ 20 b/s / pC20: Tables 5 and 6; for limiting γ 0.1 b/s / limiting γ 20 b/s: lowest surface tension in water; for pC20: negative logarithm of molar concentration giving 52.1 dyne/cm at 0.1 b/s
Method: as §1, with “In practical terms, high bubble rates correspond to high printing speeds in lithographic printing, high spray or roller velocities in coating applications, and rapid application rates for agricultural products. […] This value is a measure of the efficiency of a surfactant. […] The critical” for “The critical”

[3] = Ross-Miles foam test based upon ASTM D 1173-53, 0.1 wt % solution; settings: Tables 5 and 6; for RM Foam initial: initial foam height
Method: The foam height is measured at the completion of the addition (“Initial Foam Height”) and the time required for the foam to dissipate is recorded (“Time to 0 Foam”). This test provides a comparison between the foaming characteristics of various surfactant solutions. In general, in coatings, inks, and agricultural formulations, foam is undesirable because is complicates handling and can lead to coating and print defects, and to inefficient application of agricultural materials.

Sol Limit [1]: 0.21 wt % | γ (0.1% solution) 1 b/s ([2]; 1 b/s): 33.6 dyne/cm | γ (0.1% solution) 6 b/s ([2]; 6 b/s): 36.6 dyne/cm | limiting γ 0.1 b/s ([2]; 0.1 b/s): 29.3 dyne/cm | limiting γ 20 b/s ([2]; 20 b/s): 31.4 dyne/cm | pC20 [2]: 4.07 | RM Foam initial [3]: 1.0 cm | RM Foam (t to 0) ([3]; time to 0 foam): (10 s)
Substance: 3.5 mole ethoxylate of 2,4,7,9-tetramethyl-5-decyne-4,7-diol capped with 2 moles of propylene oxide [Example 3]

Sol Limit ([1]; water, Tables 5 and 6, unit printed only in Table 7 footnote): (0.78) wt % | γ (0.1% solution) 1 b/s ([2]; 1 b/s): 42.0 dyne/cm | γ (0.1% solution) 6 b/s ([2]; 6 b/s): 44.3 dyne/cm | Dynamic Surface Tension ([2]; 0.1 wt % in distilled water, 0.1 b/s): 40.5 dyne/cm | Dynamic Surface Tension ([2]; 0.1 wt % in distilled water, 1 b/s): 42.0 dyne/cm | Dynamic Surface Tension ([2]; 0.1 wt % in distilled water, 6 b/s): 44.3 dyne/cm | Dynamic Surface Tension ([2]; 0.1 wt % in distilled water, 15 b/s): 47.1 dyne/cm | Dynamic Surface Tension ([2]; 0.1 wt % in distilled water, 20 b/s): 48.1 dyne/cm | Dynamic Surface Tension ([2]; 0.5 wt % in distilled water, 0.1 b/s): 32.4 dyne/cm | Dynamic Surface Tension ([2]; 0.5 wt % in distilled water, 1 b/s): 33.6 dyne/cm | Dynamic Surface Tension ([2]; 0.5 wt % in distilled water, 6 b/s): 35.1 dyne/cm | Dynamic Surface Tension ([2]; 0.5 wt % in distilled water, 15 b/s): 36.6 dyne/cm | Dynamic Surface Tension ([2]; 0.5 wt % in distilled water, 20 b/s): 37.2 dyne/cm | Dynamic Surface Tension ([2]; 1.0 wt % in distilled water, 0.1 b/s): 29.8 dyne/cm | Dynamic Surface Tension ([2]; 1.0 wt % in distilled water, 1 b/s): 30.5 dyne/cm | Dynamic Surface Tension ([2]; 1.0 wt % in distilled water, 6 b/s): 32.1 dyne/cm | Dynamic Surface Tension ([2]; 1.0 wt % in distilled water, 15 b/s): 33.0 dyne/cm | Dynamic Surface Tension ([2]; 1.0 wt % in distilled water, 20 b/s): 33.7 dyne/cm | limiting γ 0.1 b/s ([2]; 0.1 b/s): 29.8 dyne/cm | limiting γ 20 b/s ([2]; 20 b/s): 33.7 dyne/cm | pC20 [2]: 4.05 | RM Foam (foam height remaining) ([3]; cm after 5 minutes): (1.3) cm | RM Foam initial [3]: 2.1 cm
Substance: 10 mole EO/2 mole PO block derivative of 2,4,7,9-tetramethyl-5-decyne-4,7-diol [Example 5]
